Measured values taken from patent publication US4190675A (priority 1976, dated 1980).
≈ marks a conversion by molar mass, not a printed value. Entries after “also recorded” stand apart in the source; their conditions may differ. Like-named read-outs stand apart in the source and are kept apart here.

Key:
rats [1] = assay: Turpentine-induced pleuritis in rats (Hurley); format: in vivo; details: for Exudate / Inhibition: P <0.01
[2] = tested on: isolated Guinea-pig trachea; assay: Relaxation of the isolated Guinea-pig trachea (Costantine); format: cell-based; details: for activation at 125 µg/mL: 125 μg/ml; for activation at 125 µg/mL / activation at 500 µg/mL / activation at 2000 µg/mL: average of 4 preparations; for activation at 500 µg/mL: 500 μg/ml; for activation at 2000 µg/mL: 2,000 μg/ml; for relaxation of the smooth tracheal muscles, intensity compared with Fraction 2 and sobrerol (in words): in vitro, isolated Guinea-pig trachea; for bronchodilating activity, grade (in words): overall, in vitro and in vivo
Staphylococcus aureus = assay: Antibacterial activity (MIC), Staphylococcus aureus; format: cell-based; details: for antibacterial activity, grade (in words): Gram-positive germs / overall; for antibacterial activity compared with Fraction 2 and sobrerol (in words): Staphylococcus aureus and Escherichia coli; for MIC: read-out: Minimum Inhibiting Concentration (MIC)
Escherichia coli = assay: Antibacterial activity (MIC), Escherichia coli; format: cell-based; details: for MIC: read-out: Minimum Inhibiting Concentration (MIC); for antibacterial activity, grade (in words): Gram-negative germs
rats [3] = assay: Carrageenin-induced paw oedema in rats (Winter); format: in vivo, albino rats, COBS (Charles River) stock; details: for % inhibition of plantar oedema: after 4 hours, 6 animals; for anti-inflammatory action, grade (in words): overall summary
thrombocyte aggregation = assay: Inhibition of thrombocyte aggregation from ADP in vitro (Born and Cross); format: cell-based; details: for inhibition of thrombocyte aggregation compared with Fraction 2 and sobrerol (in words): 160 to 1,280 micrograms/ml, ADP, in vitro; for inhibition at 160 µg/mL: final concentration 160 μg/ml; for inhibition at 160 µg/mL / inhibition at 320 µg/mL / inhibition at 640 µg/mL / inhibition at 1280 µg/mL: average of repeated tests; for inhibition at 320 µg/mL: final concentration 320 μg/ml; for inhibition at 640 µg/mL: final concentration 640 μg/ml; for inhibition at 1280 µg/mL: final concentration 1280 μg/ml
rabbits [4] = assay: Inhibition of histamine-induced bronchospasm by intravenous perfusion in rabbits; format: in vivo; details: for Percentage of inhibition of the histamine-induced bronchospasm: histamine 100 micrograms/kg i.v., average of 4 animals
red blood cells of rats = assay: Protection of red blood cells from haemolysis induced by Tween 80, in vitro; format: cell-based; details: for EC50: Rattus norvegicus, Erythrocyte, Tween 80
Source text: (fiducial limits 95% : 518.0-760.11).

[5] = Acute toxicity in rats (LD50, Litchfield and Wilcoxon); details: rat, in vivo, iv, intravenously
mice = details: for Gleason classification: mice
in vivo = details: mouse, LD50, mice, fiducial limits 95%
[6] = Acute toxicity in rabbits (LD50, Litchfield and Wilcoxon); format: in vivo; details: rabbit, in vivo, fiducial limits 95%
rabbits [7] = assay: as above; format: in vivo
[8] = tested on: isolated Guinea-pig trachea; assay: Inhibition of histamine-induced contractions of the isolated Guinea-pig trachea; format: cell-based; details: histamine 10^-5 M, average
Source text: In addition, at concentrations in the range of from 10^-3 M to 5.10^-3 M, it inhibits the histamine-induced contractions of the isolated Guinea-pig trachea (Histamine 10^-5 M, see TABLE 3).

dogs = assay: Reduction of lung resistance in anesthetized dogs (Diamond); format: in vivo; details: intravenous; for Percentage reduction of the Lung Resistance: average for 4 animals
[9] = Cavia porcellus, read-out: Percentage of relaxation of the isolated Guinea-pig trachea
[10] = 30 mg/kg b.w. intraperitoneally
[11] = read-out: Thrombocyte aggregation % INHIBITION
[12] = intravenous perfusion 15 minutes
[13] = intravenous perfusion 30 minutes
[14] = intravenous perfusion 60 minutes
[15] = perfused intravenously 2.5 mls per kg b.w. per minute

## CC(=O)Oc1ccccc1C(=O)O [Aspirin, aspirin, reference compound]
Rats [1]; 100 mgs/kg intraperitoneal
  Exudate: 1.30 mls.
  Inhibition: 34%

## CC1=CCC(C(C)(C)O)CC1O (centres unmarked) [Sobrerol, sobrerol, reference compound]
[2]; [9]
  percent relaxation of trachea at 125 µg/mL: 1.87%
  percent relaxation of trachea at 500 µg/mL: 5.62%
  percent relaxation of trachea at 2000 µg/mL: 20.8%
Staphylococcus aureus; Staphylococcus aureus
  Minimum Inhibiting Concentration (MIC): .infin.
Escherichia coli; Escherichia coli
  Minimum Inhibiting Concentration (MIC): .infin.
Rats [3]; [10]
  % inhibition of plantar oedema: 11%
Thrombocyte aggregation; [11]
  inhibition at 1000 µg/mL: 4%
  inhibition at 1500 µg/mL: 12%
  inhibition at 2000 µg/mL: 24%
  inhibition at 4000 µg/mL: 32%
Rabbits [4]; [12]
  Percentage of inhibition of the histamine-induced bronchospasm: 2.15%
Rabbits [4]; [13]
  Percentage of inhibition of the histamine-induced bronchospasm: 1.15%
Rabbits [4]; [14]
  Percentage of inhibition of the histamine-induced bronchospasm: 3.97%

## CC1(C)C2CC=C(C=O)C1C2 (centres unmarked) [Myrtenal, myrtenal]
[2]; [9]
  activation at 125 µg/mL: 7.5%
  activation at 500 µg/mL: 47.5%
  activation at 2000 µg/mL: 62.5%
[2]
  relaxation of the smooth tracheal muscles, intensity compared with Fraction 2 and sobrerol (in words): statistically higher than that of the Fraction 2 and that of sobrerol
  bronchodilating activity, grade (in words): fair bronchodilating activity
Staphylococcus aureus
  antibacterial activity, grade (in words): pronounced antibacterial activity on Gram-positive germs
  antibacterial activity compared with Fraction 2 and sobrerol (in words): more active both than Fraction 2 and sobrerol
Staphylococcus aureus; listed as myrtenal
  antibacterial activity, grade (in words): marked antibacterial action
Staphylococcus aureus; Staphylococcus aureus
  MIC: 200 µg/mL (≈ 1.33 mM)
Escherichia coli; Escherichia coli
  MIC: 800 µg/mL (≈ 5.33 mM)
Escherichia coli
  antibacterial activity, grade (in words): less intense on Gram-negative ones
Rats [3]; [10]
  % inhibition of plantar oedema: 30%
Rats [3]
  anti-inflammatory action, grade (in words): anti-inflammatory action of poor magnitude
Rats [3]; rats, 30 mg/kg b.w. intraperitoneally
  inhibition of carrageenin paw oedema compared with Fraction 2 and sobrerol (in words): more intense than that of Fraction 2 and also than that of sobrerol
Thrombocyte aggregation
  inhibition of thrombocyte aggregation compared with Fraction 2 and sobrerol (in words): higher than those of Fraction 2 and sobrerol
  inhibition at 160 µg/mL: 0%
  inhibition at 320 µg/mL: 12%
  inhibition at 640 µg/mL: 20%
  inhibition at 1280 µg/mL: 75%
Rabbits [4]; [12]
  Percentage of inhibition of the histamine-induced bronchospasm: 25.4%
Rabbits [4]; [13]
  Percentage of inhibition of the histamine-induced bronchospasm: 20.4%
Rabbits [4]; [14]
  Percentage of inhibition of the histamine-induced bronchospasm: 28.8%
Rabbits [4]; [15]
  inhibition of histamine-induced bronchospasm compared with Fraction 2 and sobrerol (in words): statistically higher than that of sobrerol and slightly lower than that of Fraction 2
Red blood cells of rats; 80 to 500 micrograms/ml, fiducial limits 95%=112.3-189.9, read-out: Effective Concentration 50%, protection from haemolysis
  EC50: 157 µg/mL (≈ 1.05 mM)

## C=C1C(O)CC2CC1C2(C)C (centres unmarked) [Pinocarveol, pinocarveol]
[2]
  relaxation of the smooth tracheal muscles, intensity compared with Fraction 2 and sobrerol (in words): statistically higher than that of sobrerol and which can be compared to that of Fraction 2
  bronchodilating activity, grade (in words): fair bronchodilating action; also recorded: poor bronchodilating action
Staphylococcus aureus
  antibacterial activity, grade (in words): poor antibacterial activity; also recorded: poor antibacterial action
  antibacterial activity compared with Fraction 2 and sobrerol (in words): more active than sobrerol and as active as Fraction 2
Staphylococcus aureus; Staphylococcus aureus
  MIC: 800 µg/mL (≈ 5.25 mM)
Escherichia coli; Escherichia coli
  MIC: 800 µg/mL (≈ 5.25 mM)
Escherichia coli
  antibacterial activity, grade (in words): poor antibacterial activity
[5]
  LD50: 140 mg/kg
Rats [3]
  anti-inflammatory action, grade (in words): pronounced anti-inflammatory action
Rats [3]; rats, 30 mg/kg intravenously
  inhibition of carrageenin paw oedema compared with Fraction 2 and sobrerol (in words): more intense than those of Fraction 2 and of sobrerol
Thrombocyte aggregation
  inhibition of thrombocyte aggregation compared with Fraction 2 and sobrerol (in words): exceeds that of the terpenes of the Fraction 2 and that of sobrerol
Thrombocyte aggregation; overall summary
  antiaggregative action, grade (in words): conspicuous antiaggregative action
Rabbits [4]; perfused intravenously 2.5 milligrams per kilogram and per minute
  inhibition of histamine-induced bronchospasm compared with Fraction 2 and sobrerol (in words): statistically higher than those of FRACTION 2 and of sobrerol
Red blood cells of rats; 20 to 200 micrograms/ml, fiducial limits 95%=111.5-153.04, read-out: Effective Concentration 50% (EC 50), protection from haemolysis
  EC50: 132 µg/mL (≈ 0.869 mM)
Red blood cells of rats; overall summary
  antihaemolytic activity, grade (in words): pronounced antihaemolytic activity

## CC1=CC(=O)[C@@H]2C[C@H]1C2(C)C [Verbenone, verbenone]
[2]; [9]
  activation at 125 µg/mL: 26.2%
  activation at 500 µg/mL: 61.2%
  activation at 2000 µg/mL: 71.4%
[2]
  relaxation of the smooth tracheal muscles, intensity compared with Fraction 2 and sobrerol (in words): significantly higher than that of the terpenes of the fraction 2 and also than that of sobrerol
  bronchodilating activity, grade (in words): pronounced bronchodilating action; also recorded: pronounced bronchodilating activity
mice; mice and rabbits, i.p. and p.o.
  tolerability on the basis of acute toxicity data: well tolerated
mice; i.p.
  Gleason classification: Poor
mice; p.o.
  Gleason classification: Slight
Staphylococcus aureus
  antibacterial activity, grade (in words): poor antibacterial activity
  antibacterial activity compared with Fraction 2 and sobrerol (in words): as active as Fraction 2 and more active than sobrerol
Staphylococcus aureus; Staphylococcus aureus
  MIC: 800 µg/mL (≈ 5.33 mM)
Escherichia coli; Escherichia coli
  MIC: 800 µg/mL (≈ 5.33 mM)
Escherichia coli
  antibacterial activity, grade (in words): poor antibacterial activity
Rats [3]; [10]
  % inhibition of plantar oedema: 29%
Rats [3]; normal and suprarenalectomized rats, 30 mg/kg b.w. intraperitoneally
  inhibition of carrageenin paw oedema compared with Fraction 2 and sobrerol (in words): significantly improved over those of the fraction 2 and of sobrerol
In vivo; ip, female
  LD50: 325 mg/kg
In vivo; ip, male
  LD50: 361 mg/kg
In vivo; po, female
  LD50: 1530 mg/kg
In vivo; po, male
  LD50: 1410 mg/kg
Rats [1]; 36 and 120 mg/kg b.w. intraperitoneally
  antiexudative activity compared with aspirin (in words): intense antiexudative activity in the experimental, turpentine-induced pleuritis (Hurley, J. V. et al., J. Path., 91, 575,1966) to a degree which can be compared to that of aspirin
Rats [1]; 36 mgs/kg intraperitoneal
  Exudate: 1.23 mls.
  Inhibition: 37.6%
Rats [1]; 120 mgs/kg intraperitoneal
  Exudate: 0.97 mls.
  Inhibition: 50.1%
Thrombocyte aggregation
  inhibition of thrombocyte aggregation compared with Fraction 2 and sobrerol (in words): higher than that of the terpenes of the Fraction 2 and of sobrerol
  inhibition at 160 µg/mL: 0%
  inhibition at 320 µg/mL: 6%
  inhibition at 640 µg/mL: 44%
  inhibition at 1280 µg/mL: 100%
[6]; ip, female
  LD50: 232 mg/kg
[6]; ip, male
  LD50: 310 mg/kg
[6]; po, female
  LD50: 655 mg/kg
[6]; po, male
  LD50: 790 mg/kg
Rabbits [7]; i.p.
  Gleason classification: Poor
Rabbits [7]; p.o.
  Gleason classification: Poor
[8]; 5.10^-3 M
  Percentage of inhibition of the histaminic spasm due to relaxation of the smooth tracheal muscles: 96.8%
[8]; Cavia porcellus, 10^-3 M, read-out: Percentage of inhibition of the histaminic spasm due to relaxation of the smooth tracheal muscles
  inhibition at 1000 µM: 29.2%
dogs; 0.6 mgs/kg b.w.
  Percentage reduction of the Lung Resistance: 7.175%
dogs; 0.6 to 4.8 mgs/kg b.w.
  reduction of the lung resistances (in words): pronounced reduction of the lung resistances
dogs; 1.2 mgs/kg b.w.
  Percentage reduction of the Lung Resistance: 10.85%
dogs; 2.4 mgs/kg b.w.
  Percentage reduction of the Lung Resistance: 22.225%
dogs; 4.8 mgs/kg b.w.
  Percentage reduction of the Lung Resistance: 30.6%
Rabbits [4]; [12]
  Percentage of inhibition of the histamine-induced bronchospasm: 36.25%
Rabbits [4]; [13]
  Percentage of inhibition of the histamine-induced bronchospasm: 46.27%
Rabbits [4]; [14]
  Percentage of inhibition of the histamine-induced bronchospasm: 73.32%
Rabbits [4]; [15]
  inhibition of histamine-induced bronchospasm compared with Fraction 2 and sobrerol (in words): statistically higher than that of the terpenes of the fraction 2 and also than that of sobrerol
Red blood cells of rats; fiducial limits 95%: 518.0-760.11, read-out: effective concentration 50% (EC 50), protection from haemolysis
  EC50: 640 µg/mL (≈ 4.26 mM)
